Measurements published in patent US8178506B2, “Oligomeric compounds and compositions for use in modulation of small non-coding RNAs” (Regulus Therapeutics Inc., priority 2003, dated 2012).
In the oligonucleotide strings, read from the 5' end, every base follows the letter of its sugar. An asterisk marks phosphorothioate; unmarked linkages are phosphodiester. Other units and linkages are bracketed, terminal groups are in braces. A string of capitals states the bases alone. e = 2'-O-(2-methoxyethyl) (MOE); [5mC] = 5-methylcytosine; d = 2'-deoxy (DNA)

Columns and labels:
Format in all cases: cell-based, human
[1] = test system: T47Dp53 cells; test: Cell cycle assay in T47Dp53 cells; conditions: 150 nM, 48 hours, relative to untreated control
[2] = test system: bulged mir-143 target sequence; test: pGL3-bulge(×3) luciferase assay in HeLa cells; conditions: 24 hours; for luciferase activity from pGL3-bulge(×3): HeLa, 11, 33 and 100 nM; for luciferase expression: HeLa cells
Description: (§1) An expression system based on the pGL3-Control (Promega Corp., Madison Wis.) reporter vector and comprising predicted miRNA binding sites was used in transient transfections of HeLa cells with plasmids expressing oligomeric compounds mimicking miRNAs, pre-miRNAs or pri-miRNAs in order to assess the ability of these miRNA mimics to bind and regulate the expression of the luciferase reporter. The effect of increasing the copy number of the miRNA-binding site in the target was also tested by including multiple binding sites in artificial reporter constructs. It is understood that the presence of multiple miRNA-binding sites in a target can include binding sites for different miRNAs.
(§2) The following reporter plasmids were constructed by cloning the specified fragment into the XbaI site of the pGL3-control plasmid, placing the potential miRNA-binding site in the 3′-UTR of the luciferase reporter: The reporter plasmid pGL3-bulge(×3) contains three contiguous copies of the sequence ([…]; herein incorporated as SEQ ID NO: 874) which represents a sequence complementary to the mir-143 miRNA except that it is missing 2 nucleotides such that the mir-143 miRNA is presumed to adopt a bulged structure when it hybridizes to this target sequence. The pGL3-GLO1 reporter plasmid contains a DNA fragment comprising the 3′-UTR of the GLO1 sequence; this fragment was PCR-amplified using a primer beginning at nucleotide number 621 of the GLO1 sequence (GenBank Accession NM_006708.1, SEQ ID NO: 821) and the downstream primer hybridizing to the poly A tail. The pGL3-PP2A reporter plasmid contains a DNA fragment comprising the 3′-UTR of the PP2A gene; this fragment was PCR-amplified using a primer beginning at nucleotide number 921 of the PP2A sequence (GenBank Accession NM_004156.1) and the downstream primer hybridizing to the poly A tail. The reporter plasmid pGL3-ERK5-3′-UTR(×1) contains one copy of the sequence […] (herein incorporated as SEQ ID NO: 875), found in the 3′-UTR of ERK5 and predicted by Lewis, et al. to be bound by the mir-143 miRNA, and the reporter plasmid pGL3-ERK5-3′UTR(×3) has three contiguous copies of this sequence. The reporter plasmid pGL3-ERK5-3′UTR(ext) contains one copy of the sequence […] (herein incorporated as SEQ ID NO: 876), which includes an additional ten nucleotides at either end of the mir-143 binding site in 3′-UTR of ERK5 predicted by Lewis, et al. (Lewis et al., Cell, 2003, 115, 787-798). The plasmids pGL3-ERK5-cds(×1), pGL3-ERK5-cds(×2), pGL3-ERK5-cds(×3), and pGL3-ERK5-cds(×5) contain one, two, three or five contiguous copies, respectively, of the novel mir-143 binding site ([…]; herein incorporated as SEQ ID NO: 877) we identified within the coding sequence of ERK5. The unmodified pGL3-Control luciferase reporter vector was used as a negative control, and the pGL3-mir-143 sensor reporter plasmid was used as a positive control.
(§3) HeLa cells were routinely cultured and passaged as described. In some embodiments, HeLa cells were transfected with 0.05 μg of the relevant pGL3-sensor plasmid and 0.01 μg pRL-CMV plasmid. Additionally, in some embodiments, cells were treated at various dosages (11 nM, 33 nM, and 100 nM) with the following oligomeric compound mimics: 1) ds-mir-143, or 2) ds-Control as described. In accordance with methods described in Example 12, a luciferase assay was performed 24-hours after transfection. The results, shown in Tables 40 and 41, are an average of three trials. Data are presented as percent untreated control (luciferase plasmid only, not treated with oligomeric compound) luciferase expression, normalized to pRL-CMV levels.

[3] = test system: mir-143 binding site within the coding sequence of ERK5; test: pGL3-ERK5-cds luciferase assays in HeLa cells; conditions: for luciferase expression: HeLa cells, 24 hours
Description: as §1, §2, §3

328403 (antisense eA*eG*eG*e[5mC]*e[5mC]*dT*dA*dT*dT*d[5mC]*d[5mC]*dT*dG*dT*dA*eG*e[5mC]*eA*eA*eA) [compound 328403]
% cells in cell cycle phase G1 [1]: 114%
% cells in cell cycle phase G2/M [1]: 94%
% cells in cell cycle phase S [1]: 87%
% cells in cell cycle phase aneuploid [1]: 89%
% cells in cell cycle phase subG1 [1]: 140%

ds-mir-143: double-stranded RNA of ISIS 342199 hybridized to its perfect complement ISIS 342200 (sense UGAGAUGAAGCACUGUAGCUCA; antisense UGAGCUACAGUGCUUCAUCUCA; RNA, backbone not given here)
luciferase activity from pGL3-bulge(×3) [2]: dose-dependent inhibition of luciferase activity
luciferase activity from pGL3-bulge(×3) ([2]; listed as mir-143 dsRNA mimic compound): inhibited luciferase activity from the pGL3-bulge(×3) sensor plasmid in a dose-dependent manner
luciferase expression ([2]; Table 40, pGL3-bulge(x3), 11 nM): 50.7 percent untreated control
luciferase expression ([2]; Table 40, pGL3-bulge(x3), 33 nM): 35.4 percent untreated control
luciferase expression ([2]; Table 40, pGL3-bulge(x3), 100 nM): 17.2 percent untreated control
luciferase expression ([2]; Table 41, pGL3-bulge(x3), 11 nM): 36.1 percent untreated control
luciferase expression ([2]; Table 41, pGL3-bulge(x3), 33 nM): 33.9 percent untreated control
luciferase expression ([2]; Table 41, pGL3-bulge(x3), 100 nM): 22.2 percent untreated control
luciferase expression from pGL3-ERK5-cds(×1) or pGL3-ERK5-cds(×2) ([3]; HeLa, 100 nM): did reduce luciferase expression
luciferase activity from pGL3-ERK5-cds(×3) or pGL3-ERK5-cds(×5) ([3]; HeLa, 11, 33 and 100 nM): reduction in luciferase activity
luciferase activity from pGL3-ERK5-cds(×5), dose response ([3]; HeLa, 11, 33 and 100 nM): dose-responsiveness
luciferase activity from pGL3-ERK5-cds(×1) or pGL3-ERK5-cds(×2) ([3]; HeLa, 11- or 33 nM): did not appear to inhibit luciferase activity
luciferase expression ([3]; Table 41, pGL3-ERK5-cds(x1), 11 nM): 101.3 percent untreated control
luciferase expression ([3]; Table 41, pGL3-ERK5-cds(x1), 33 nM): 115.4 percent untreated control
luciferase expression ([3]; Table 41, pGL3-ERK5-cds(x1), 100 nM): 77.4 percent untreated control
luciferase expression ([3]; Table 41, pGL3-ERK5-cds(x2), 11 nM): 92.7 percent untreated control
luciferase expression ([3]; Table 41, pGL3-ERK5-cds(x2), 33 nM): 113.8 percent untreated control
luciferase expression ([3]; Table 41, pGL3-ERK5-cds(x2), 100 nM): 63.6 percent untreated control
luciferase expression ([3]; Table 41, pGL3-ERK5-cds(x3), 11 nM): 73.5 percent untreated control
luciferase expression ([3]; Table 41, pGL3-ERK5-cds(x3), 33 nM): 77.9 percent untreated control
luciferase expression ([3]; Table 41, pGL3-ERK5-cds(x3), 100 nM): 49.4 percent untreated control
luciferase expression ([3]; Table 41, pGL3-ERK5-cds(x5), 11 nM): 49.4 percent untreated control
luciferase expression ([3]; Table 41, pGL3-ERK5-cds(x5), 33 nM): 44.5 percent untreated control
luciferase expression ([3]; Table 41, pGL3-ERK5-cds(x5), 100 nM): 23.9 percent untreated control
